Results: ChEMBL document CHEMBL2074153, “Identification of organic anion transporting polypeptide 4 (Oatp4) as a major full-length isoform of the liver-specific transporter-1 (rlst-1) in rat liver” (FEBS Lett, 2000)

Columns and labels:
[1] = target: T1, Solute carrier organic anion transporter family member 1B2 (Rattus norvegicus, UniProt Q9QZX8); assay: (§1) TP_TRANSPORTER: uptake in Xenopus laevis oocytes; assay type: functional, cell-based; conditions: oocyte
T1 sequence (Q9QZX8 whole entry): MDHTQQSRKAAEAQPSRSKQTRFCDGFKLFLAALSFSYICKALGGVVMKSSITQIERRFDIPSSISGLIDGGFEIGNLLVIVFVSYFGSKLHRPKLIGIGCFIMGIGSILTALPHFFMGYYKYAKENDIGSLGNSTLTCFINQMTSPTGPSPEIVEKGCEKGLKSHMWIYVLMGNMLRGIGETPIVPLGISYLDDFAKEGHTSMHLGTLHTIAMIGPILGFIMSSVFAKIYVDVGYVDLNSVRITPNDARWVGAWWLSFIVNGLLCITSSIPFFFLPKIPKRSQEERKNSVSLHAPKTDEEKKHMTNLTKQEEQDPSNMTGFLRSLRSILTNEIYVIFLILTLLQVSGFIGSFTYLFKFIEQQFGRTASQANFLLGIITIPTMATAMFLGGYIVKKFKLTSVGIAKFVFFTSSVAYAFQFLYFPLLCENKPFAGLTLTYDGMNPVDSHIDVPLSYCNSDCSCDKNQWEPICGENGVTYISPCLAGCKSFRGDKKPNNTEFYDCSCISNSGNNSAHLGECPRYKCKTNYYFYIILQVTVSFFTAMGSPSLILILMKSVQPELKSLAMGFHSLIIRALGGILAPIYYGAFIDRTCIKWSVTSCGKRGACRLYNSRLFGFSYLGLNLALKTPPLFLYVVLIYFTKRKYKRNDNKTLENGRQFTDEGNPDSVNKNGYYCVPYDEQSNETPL

[2] = substrate: O=C1OC(c2ccc(O)c(S(=O)(=O)O)c2)(c2ccc(O)c(S(=O)(=O)O)c2)c2c(Br)c(Br)c(Br)c(Br)c21; assay: as §1; assay type: functional, cell-based, Oocyte

Q: Which Activity [1] does the source give for `N[C@@H](Cc1cc(I)c(Oc2cc(I)c(O)c(I)c2)c(I)c1)C(=O)O` [LEVOTHYROXINE] here?
A: Its Activity is “substrate [+]”.

Q: How did the Activity [1] turn out when `N[C@@H](Cc1cc(I)c(Oc2ccc(O)c(I)c2)c(I)c1)C(=O)O` [LIOTHYRONINE] was run?
A: Its Activity is “substrate [+]”.

B1: Solute carrier organic anion transporter family member 1B2 (Rattus norvegicus) (protein)
chain: MDHTQQSRKAAEAQPSRSKQTRFCDGFKLFLAALSFSYICKALGGVVMKSSITQIERRFDIPSSISGLIDGGFEIGNLLVIVFVSYFGSKLHRPKLIGIGCFIMGIGSILTALPHFFMGYYKYAKENDIGSLGNSTLTCFINQMTSPTGPSPEIVEKGCEKGLKSHMWIYVLMGNMLRGIGETPIVPLGISYLDDFAKEGHTSMHLGTLHTIAMIGPILGFIMSSVFAKIYVDVGYVDLNSVRITPNDARWVGAWWLSFIVNGLLCITSSIPFFFLPKIPKRSQEERKNSVSLHAPKTDEEKKHMTNLTKQEEQDPSNMTGFLRSLRSILTNEIYVIFLILTLLQVSGFIGSFTYLFKFIEQQFGRTASQANFLLGIITIPTMATAMFLGGYIVKKFKLTSVGIAKFVFFTSSVAYAFQFLYFPLLCENKPFAGLTLTYDGMNPVDSHIDVPLSYCNSDCSCDKNQWEPICGENGVTYISPCLAGCKSFRGDKKPNNTEFYDCSCISNSGNNSAHLGECPRYKCKTNYYFYIILQVTVSFFTAMGSPSLILILMKSVQPELKSLAMGFHSLIIRALGGILAPIYYGAFIDRTCIKWSVTSCGKRGACRLYNSRLFGFSYLGLNLALKTPPLFLYVVLIYFTKRKYKRNDNKTLENGRQFTDEGNPDSVNKNGYYCVPYDEQSNETPL
Q: B1 was tested. Which Km [2] did it give?
A: Its Km is 1.1 µM.
